# Patent publication US11608323B2 (SYNGENTA LIMITED, priority 2013, dated 2023)
# Columns and labels:
# Assay type in all cases: in vivo
# [1] = tested on: ABUTH; assay: Pre-emergence herbicidal activity, glasshouse pot test; conditions: rate 1000 g/Ha, evaluated after 13 days, scale 0-5
# Description: (§1) Seeds of a variety of test species were sown in standard soil in pots. After cultivation for one day (pre-emergence) under controlled conditions in a glasshouse (at 24/16° C., day/night; 14 hours light; 65% humidity), the plants were sprayed with an aqueous spray solution derived from the formulation of the technical active ingredient in acetone/water (50:50) solution containing 0.5% Tween 20 (polyoxyethelyene sorbitan monolaurate, CAS RN 9005-64-5). The test plants were then grown in a glasshouse under controlled conditions (at 24/16° C., day/night; 14 hours light; 65% humidity) and watered twice daily. After 13 days, the test was evaluated (5=total damage to plant; 0=no damage to plant).
# [2] = tested on: AMARE; assay: as above; conditions: rate 1000 g/Ha, evaluated after 13 days, scale 0-5
# Description: as §1
# [3] = tested on: ECHCG; assay: as above; conditions: rate 1000 g/Ha, evaluated after 13 days, scale 0-5
# Description: as §1
# [4] = tested on: SETFA; assay: as above; conditions: rate 1000 g/Ha, evaluated after 13 days, scale 0-5
# Description: as §1
# [5] = tested on: ZEAMX; assay: as above; conditions: rate 1000 g/Ha, evaluated after 13 days, scale 0-5
# Description: as §1
# [6] = tested on: ABUTH; assay: Post-emergence herbicidal activity, glasshouse pot test; conditions: Abutilon theophrasti; application post-emergence; rate 1000 g/Ha; evaluated after 13 days
# Description: (§2) Seeds of a variety of test species were sown in standard soil in pots. After 8 days cultivation (post-emergence) under controlled conditions in a glasshouse (at 24/16° C., day/night; 14 hours light; 65% humidity), the plants were sprayed with an aqueous spray solution derived from the formulation of the technical active ingredient in acetone/water (50:50) solution containing 0.5% Tween 20 (polyoxyethelyene sorbitan monolaurate, CAS RN 9005-64-5). The test plants were then grown in a glasshouse under controlled conditions (at 24/16° C., day/night; 14 hours light; 65% humidity) and watered twice daily. After 13 days, the test was evaluated (5=total damage to plant; 0=no damage to plant).
# [7] = tested on: AMARE; assay: as above; conditions: Amaranthus retroflexus; application post-emergence; rate 1000 g/Ha; evaluated after 13 days
# Description: as §2
# [8] = tested on: ECHCG; assay: as above; conditions: Echinochloa crus-galli; application post-emergence; rate 1000 g/Ha; evaluated after 13 days
# Description: as §2
# [9] = tested on: SETFA; assay: as above; conditions: Setaria faberi; application post-emergence; rate 1000 g/Ha; evaluated after 13 days
# Description: as §2
# [10] = tested on: ZEAMX; assay: as above; conditions: Zea mays; application post-emergence; rate 1000 g/Ha; evaluated after 13 days
# Description: as §2
Compound,"ABUTH damage score, application pre-emergence [1]","AMARE damage score, application pre-emergence [2]","ECHCG damage score, application pre-emergence [3]","SETFA damage score, application pre-emergence [4]","ZEAMX damage score, application pre-emergence [5]",Post-emergence herbicidal activity ABUTH (damage score 0-5) [6],Post-emergence herbicidal activity AMARE (damage score 0-5) [7],Post-emergence herbicidal activity ECHCG (damage score 0-5) [8],Post-emergence herbicidal activity SETFA (damage score 0-5) [9],Post-emergence herbicidal activity ZEAMX (damage score 0-5) [10]
CON1C(=O)N(c2cc(Cl)c(C(=O)NC(C)(C)C)cn2)C(O)C1C (stereo not shown) [Compound A70],5,5,5,5,3,5,5,5,5,5
CC1C(O)N(c2cc(Cl)c(C(=O)NC(C)(C)C)cn2)C(=O)N1C (stereo not shown) [Compound A71],5,5,5,0,3,5,5,5,5,4
CON1C(=O)N(c2cc(C(F)(F)C(F)(F)F)ccn2)C(O)C1C (stereo not shown) [Compound A73],5,5,4,5,3,5,5,5,5,3
CC1C(O)N(c2ccc(C(F)(F)F)cn2)C(=O)N1C (stereo not shown) [Compound A74],5,5,4,4,3,5,5,4,5,3
O=C1N2CCOC2C(O)N1c1cc(C(F)(F)F)ccn1 (stereo not shown) [Compound A75],5,5,4,4,2,5,5,5,5,2
COCN1C(=O)N(c2cc(C(F)(F)F)ccn2)C(O)C1C (stereo not shown) [Compound A76],5,5,3,4,2,5,5,4,4,1
COC[C@@H]1C(O)N(c2cc(C(F)(F)F)ccn2)C(=O)N1C (stereo partly shown) [Compound A77],5,5,5,5,3,5,5,5,5,5
COC[C@H]1C(O)N(c2cc(C(F)(F)F)ccn2)C(=O)N1C (stereo partly shown) [Compound A78],5,5,4,3,1,5,5,5,3,0
CON1C(=O)N(c2cc(C(F)(F)F)c(C)cn2)C(O)[C@@H]1C (stereo partly shown) [Compound A79],5,5,5,5,2,5,5,5,5,4
CON1C(=O)N(c2ccc(C(F)(F)F)cn2)C(O)C1C (stereo not shown) [Compound A80],5,5,5,4,2,5,5,5,5,4
CN1C(=O)N(c2ccc(C(F)(F)F)cn2)C(O)C1O (stereo not shown) [Compound A81],2,3,0,2,0,4,4,2,2,0
CCOC1C(O)N(c2cc(C(F)(F)C(F)(F)F)ccn2)C(=O)N1C (stereo not shown) [Compound A82],5,5,3,3,2,5,5,4,4,2
CCOC1C(O)N(c2ccc(C(F)(F)F)cn2)C(=O)N1C (stereo not shown) [Compound A83],5,5,4,4,1,5,5,1,4,1
CC1C(O)N(c2cc(C(F)F)ccn2)C(=O)N1C (stereo not shown) [Compound A84],5,5,5,5,3,5,5,5,5,4
CC1C(O)N(c2cc(C(F)(F)Cl)ccn2)C(=O)N1C (stereo not shown) [Compound A85],5,5,5,5,3,5,5,5,5,4
CC1C(O)N(c2cc(C(F)F)c(Cl)cn2)C(=O)N1C (stereo not shown) [Compound A86],5,5,5,5,3,5,5,5,5,2
